US20230147683A1, “TREATMENT” (UNION Therapeutics A/S, priority 2020, published 2023)

System: European D614G strain of SARS-CoV-2 (BavPat1/2020)
Format: cell-based

O=C(Nc1ccc([N+](=O)[O-])cc1Cl)c1cc(Cl)ccc1O [niclosamide ethanolamine]
reduction of intracellular viral RNA level compared to non-treated control: 3 fold
